Test results as given in patent US6492303B1, “Compositions for protecting a plant from a disease and using method thereof” (priority 1998, dated 2002).

Tests used:
[1] = tested on: rice plant “Nihonbare”; experiment: Test 1: production of Sakuranetin and Momilactone-A in wounded rice blades treated with DL-methionine/D-glucose solutions; format: in vivo; details: rice fifth blades, 25 μl test solution on 1 mm cuts, 60 hours at 25° C. under light; detected amount per cut
Method: The structural formula of Sakuranetin is shown in Formula 1, and of Momilactone-A in Formula 2. [drawing 1]
A control section was set up similarly except using 25 μl of distilled water only.
Unit: ng/spot (detected amount per cut)

[2] = tested on: Eggplant; details: 500 ml per stock sprayed on foliage, aboveground part 72 hours after spraying; Non-treating Section = 100
Method: (§1) Above plants in the age of 5-6 blades were employed for the test. […] The application for MG3 and M1 was executed in the form of spraying on the foliage by 500 ml per stock. The analysis of phytoalexins were carried out by sampling the aboveground part of plants 72 hours after the spraying, extracting the samples with acetone followed by chromatographic elution with ethyl acetate through a silica gel, and finally analyzing on an HPLC instrument.

[3] = tested on: Beat; details: 500 ml per stock sprayed on foliage, aboveground part 72 hours after spraying; Non-treating Section = 100
Method: as §1

[4] = tested on: Grape; details: 500 ml per stock sprayed on foliage, aboveground part 72 hours after spraying; Non-treating Section = 100
Method: as §1

[5] = tested on: Tomato; details: 500 ml per stock sprayed on foliage, aboveground part 72 hours after spraying; Non-treating Section = 100
Method: as §1

[6] = tested on: Tobacco; details: 500 ml per stock sprayed on foliage, aboveground part 72 hours after spraying; Non-treating Section = 100
Method: as §1

[7] = tested on: Carrot; details: 500 ml per stock sprayed on foliage, aboveground part 72 hours after spraying; Non-treating Section = 100
Method: as §1

[8] = tested on: Chinese cabbage; details: 500 ml per stock sprayed on foliage, aboveground part 72 hours after spraying; Non-treating Section = 100
Method: as §1

[9] = tested on: Podded pea; details: 500 ml per stock sprayed on foliage, aboveground part 72 hours after spraying; Non-treating Section = 100
Method: as §1

[10] = tested on: rice blight (Pyricularia oryzae); format: in vivo; details: rice “Nihonbare”, 100 ml sprayed on foliage 24 hours before inoculation, measured ten days after inoculation; Control Section 25.1
[11] = tested on: Potato; details: 500 ml per stock sprayed on foliage, aboveground part 72 hours after spraying; Non-treating Section = 100
Method: as §1

[12] = tested on: Soybean; details: 500 ml per stock sprayed on foliage, aboveground part 72 hours after spraying; Non-treating Section = 100
Method: as §1

[13] = tested on: various pathogenic bacteria of plants including Pyricularia oryzae; details: antibacterial activity; stated as known, no test described; cited from earlier work
[14] = tested on: rice plant “Nihonbare”; experiment: Test 11: production of Sakuranetin and Momilactone-A in wounded rice blades treated with L-cysteine/D-glucose and comparative solutions; details: rice fifth blades, 25 μl test solution on 1 mm cuts, 60 hours at 25° C. under light

CSCCC(N)C(=O)O (racemic) [Section M1, DL-methionine]
Amount of Momilactone-A [1]: 55.89 ng/spot | Amount of Sakuranetin [1]: 122.56 ng/spot | Lubimin (Eggplant), produced amount per unit weight [2]: 23,070 | Vetablugarin (Beat), produced amount per unit weight [3]: 1,810 | α-Vinipherin (Grape), produced amount per unit weight [4]: 962 | Ricitin (Tomato), produced amount per unit weight [5]: 10,039 | Capsydiol (Tobacco), produced amount per unit weight [6]: 1,907 | 6-Methoxymelain (Carrot), produced amount per unit weight [7]: 3,222 | Blacinin (Chinese cabbage), produced amount per unit weight [8]: 18,600 | Pisatin (Podded pea), produced amount per unit weight [9]: 4,522 | Necrosis Ratio = (necrosis area + decay area)/total area [10]: 7.8% | Ricitin (Potato), produced amount per unit weight [11]: 590 | Griceorin (Soybean), produced amount per unit weight [12]: 1,910

C=C[C@]1(C)CC[C@@H]2C(=C[C@H]3OC(=O)[C@@]4(C)C(=O)CC[C@@]2(C)[C@@H]34)C1 [Momilactone-A]
ED50 [13]: 15 ppm

COc1cc(O)c2c(c1)O[C@H](c1ccc(O)cc1)CC2=O [Sakuranetin]
ED50 [13]: 15 ppm

N.N.O=S(=O)(O)O [Section AS1, Ammonium sulfate]
Amount of Momilactone-A [14]: not detected | Amount of Sakuranetin [14]: not detected

N[C@@H](CS)C(=O)O [Section C1, L-cysteine]
Amount of Momilactone-A [14]: 38.99 ng/spot | Amount of Sakuranetin [14]: 79.10 ng/spot

O=C[C@H](O)[C@@H](O)[C@H](O)[C@H](O)CO [Section GL1, D-glucose]
Amount of Momilactone-A [14]: not detected | Amount of Sakuranetin [14]: not detected

N[C@@H](CCC(=O)N[C@@H](CS)C(=O)NCC(=O)O)C(=O)O [Section GT1, Glutathione of reduced type]
Amount of Momilactone-A [14]: not detected | Amount of Sakuranetin [14]: not detected
